Measured values from patent US20240182481A1 (Tango Therapeutics, Inc., priority 2021, published 2024).

Key:
USP1-UAF1 = USP1-UAF1 (Homo sapiens, UniProt O94782); assay: Ubiquitin Rhodamine assay for USP1-UAF1 activity; assay type: biochemical
Protocol: Certain compounds of the disclosure were assessed for USP1-UAF1 activity in a Ubiquitin Rhodamine assay as described in Example 135.

[1] = system: MDA-MB-436 (BRCA1 mutant) cell line; assay: Viability assay in BRCA1 mutant cell line MDA-MB-436; assay type: cell-based; details: Homo sapiens, MDA-MB-436, viability, BRCA1 mutant MDA-MB-436; read-out: MDA-MB-436 rel IC50
From the text: (§1) Table 1 also indicates IC50 values in a viability assay for a non-isogenic pair of BRCA1 mutant (column 5—MDA-MB-436) and BRCA1 WT (column 6—HCC1954) cell lines. These values indicate the effect of treatment with compound on cell survival.

monoubiquitinated PCNA = assay: AlphaLISA assay measuring monoubiquitinated PCNA in MDA-MB-436; assay type: cell-based; details: Homo sapiens, read-out: Alpha LISA IC50
From the text: Table 1 also indicates IC50 values for exemplary compounds in an AlphaLISA assay measuring monoubiquitinated PCNA in a BRCA1 mutant cell line (MDA-MB-436; column 7).

[2] = system: HCC1954 (BRCA1 WT) cell line; assay: Viability assay in BRCA1 WT cell line HCC1954; assay type: cell-based; details: Homo sapiens, read-out: HCC 1954 IC50 rel IC50
From the text: as §1

USP1-UAF1, sequence (O94782 whole entry): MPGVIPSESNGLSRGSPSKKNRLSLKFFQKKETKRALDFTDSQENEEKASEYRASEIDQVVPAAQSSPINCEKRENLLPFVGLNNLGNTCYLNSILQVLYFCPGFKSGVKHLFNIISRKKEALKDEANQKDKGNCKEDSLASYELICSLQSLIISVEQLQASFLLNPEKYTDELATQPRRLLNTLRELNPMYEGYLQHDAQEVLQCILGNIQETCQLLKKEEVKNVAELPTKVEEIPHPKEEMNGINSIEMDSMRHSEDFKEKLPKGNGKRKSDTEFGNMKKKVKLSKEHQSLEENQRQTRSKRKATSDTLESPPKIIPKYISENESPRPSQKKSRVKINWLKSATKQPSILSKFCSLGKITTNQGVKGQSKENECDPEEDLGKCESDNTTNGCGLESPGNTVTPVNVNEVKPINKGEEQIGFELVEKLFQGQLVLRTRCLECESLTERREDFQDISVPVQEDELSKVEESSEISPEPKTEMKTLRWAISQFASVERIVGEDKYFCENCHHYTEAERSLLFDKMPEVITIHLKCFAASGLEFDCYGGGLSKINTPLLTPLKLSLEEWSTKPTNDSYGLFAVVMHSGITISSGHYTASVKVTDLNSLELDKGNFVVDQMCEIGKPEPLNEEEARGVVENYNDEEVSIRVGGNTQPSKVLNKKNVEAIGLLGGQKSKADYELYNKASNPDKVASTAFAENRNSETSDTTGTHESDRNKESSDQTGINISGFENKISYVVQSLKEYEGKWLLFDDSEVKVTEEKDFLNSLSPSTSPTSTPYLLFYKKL
USP1-UAF1, sequence (Q8TAF3 whole entry partner): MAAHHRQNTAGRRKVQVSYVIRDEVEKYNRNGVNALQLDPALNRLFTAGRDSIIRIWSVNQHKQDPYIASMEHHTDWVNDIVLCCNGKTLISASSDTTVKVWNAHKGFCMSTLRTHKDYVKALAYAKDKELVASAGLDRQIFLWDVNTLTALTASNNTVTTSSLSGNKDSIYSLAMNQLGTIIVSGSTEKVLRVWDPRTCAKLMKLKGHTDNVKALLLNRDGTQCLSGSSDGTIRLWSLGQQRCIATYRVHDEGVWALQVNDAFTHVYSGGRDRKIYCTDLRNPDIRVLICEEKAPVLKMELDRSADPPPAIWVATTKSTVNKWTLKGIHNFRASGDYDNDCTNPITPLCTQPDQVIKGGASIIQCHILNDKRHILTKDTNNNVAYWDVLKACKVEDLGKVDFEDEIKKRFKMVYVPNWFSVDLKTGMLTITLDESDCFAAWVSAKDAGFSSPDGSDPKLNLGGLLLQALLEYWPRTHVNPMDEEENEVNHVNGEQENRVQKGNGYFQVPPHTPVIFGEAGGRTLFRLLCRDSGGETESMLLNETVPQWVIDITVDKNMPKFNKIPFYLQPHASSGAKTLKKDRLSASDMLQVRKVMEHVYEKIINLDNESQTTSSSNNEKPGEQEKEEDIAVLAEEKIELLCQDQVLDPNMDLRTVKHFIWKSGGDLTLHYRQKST

Structure (SMILES) | IC50 (USP1-UAF1) [nM] | IC50 [1] [nM] | IC50 (monoubiquitinated PCNA) [nM] | IC50 [2] [nM]
COc1ncnc(C2CC2)c1-c1ncc2[nH]cc(Sc3ccc(-c4nc(C(F)(F)F)cn4C)cc3)c2n1 [Compound 180] | 100 to 10000 | 100 to 250 | 100 to 250 | ≥ 10000
Cn1cc(C(F)(F)F)nc1-c1ccc(Cc2c[nH]c3cnc(-c4cccnc4OCC(F)(F)F)nc23)cc1 [Compound 78] | < 30 | < 100 | < 100 | 250 to 10000
COc1ncnc(C2CC2)c1-c1ncc2[nH]cc(Cc3ccc(-c4nc(C(F)(F)F)cn4C)c(F)c3)c2n1 [Compound 153, 2-(4-cyclopropyl-6-methoxy-pyrimidin-5-yl)-7-[[3-fluoro-4-[1-methyl-4-(trifluoromethyl)imidazol-2-yl]phenyl]methyl]-5H-pyrrolo[3,2-d]pyrimidine] | < 30 | < 100 | < 100 | ≥ 10000
Cn1cc(C(F)(F)F)nc1-c1ccc(Cc2c[nH]c3cnc(-c4c(C5CC5)ncnc4C4CC4)nc23)cc1 [Compound 193, 2-(4,6-dicyclopropylpyrimidin-5-yl)-7-[[4-[1-methyl-4-(trifluoromethyl)imidazol-2-yl]phenyl]methyl]-5H-pyrrolo[3,2-d]pyrimidine] | < 30 | < 100 | < 100 | ≥ 10000
COc1ncnc(C2CC2)c1-c1ncc2[nH]c(F)c(Cc3ccc(-c4nc(C(F)(F)F)cn4C)cc3)c2n1 [Compound 181, 2-(4-cyclopropyl-6-methoxy-pyrimidin-5-yl)-6-fluoro-7-[[4-[1-methyl-4-(trifluoromethyl)imidazol-2-yl]phenyl]methyl]-5H-pyrrolo[3,2-d]pyrimidine] | < 30 | < 100 | < 100 | ≥ 10000
COCCc1[nH]c2cnc(-c3c(OC)ncnc3C3CC3)nc2c1Cc1ccc(-c2nc(C(F)(F)F)cn2C)cc1 [Compound 195, 2-(4-cyclopropyl-6-methoxy-pyrimidin-5-yl)-6-(2-methoxyethyl)-7-[[4-[-methyl-4-(trifluoromethyl)imidazol-2-yl]phenyl]methyl]-5H-pyrrolo[3,2-d]pyrimidine] | < 30 | < 100 | < 100 | ≥ 10000
COc1ncnc(C2CC2)c1-c1cc2c(Oc3ccc(-c4nc(C(F)(F)F)cn4C)cc3)c[nH]c2cn1 [Compound 167, 5-(4-cyclopropyl-6-methoxy-pyrimidin-5-yl)-3-[4-[1-methyl-4-(trifluoromethyl)imidazol-2-yl]phenoxy]-1H-pyrrolo[2,3-c]pyridine] | 30 to 100 | < 100 | < 100 | ≥ 10000
COc1ncnc(C2CC2)c1-c1ncc2[nH]cc(C(C)c3ccc(-c4nc(C(F)(F)F)cn4C)cc3)c2n1 (single isomer, unassigned) [Compound 89] | < 30 | < 100 | < 100 | 250 to 10000
COc1ncnc(C2CC2)c1-c1ncc2[nH]nc(Cc3ccc(-c4nc(C(F)(F)F)cn4C4CC4)cc3)c2n1 [Compound 206] | < 30 | < 100 | < 100 | 250 to 10000
COc1ncnc(C2CC2)c1-c1ncc2nn(C(C)C)c(Cc3ccc(-c4nc(C(F)(F)F)cn4C)cc3)c2n1 (single isomer, unassigned) [Compound 104, 5-(4-cyclopropyl-6-methoxy-pyrimidin-5-yl)-2-isopropyl-3-[[4-[1-methyl-4-(trifluoromethyl)imidazol-2-yl]phenyl]methyl]pyrazolo[4,3-d]pyrimidine] | 100 to 10000 | 100 to 250 | 100 to 250 | ≥ 10000
Cn1cc(C(F)(F)F)nc1-c1ccc(Cc2c[nH]c3cnc(-c4cccnc4C4CC4)cc23)cc1 [Compound 66, 2-cyclopropyl-3-[3-([4-[1-methyl-4-(trifluoromethyl)imidazol-2-yl]phenyl]methyl)-1H-pyrrolo[2,3-c]pyridin-5-yl]pyridine] | 30 to 100 | 100 to 250 | < 100 | 250 to 10000
CCOc1ncnc(C2CC2)c1-c1ncc2[nH]nc(Cc3ccc(-c4nc(C(F)(F)F)cn4C)cc3)c2n1 [Compound 126, 5-(4-cyclopropyl-6-ethoxy-pyrimidin-5-yl)-3-[[4-[1-methyl-4-(trifluoromethyl)imidazol-2-yl]phenyl]methyl]-1H-pyrazolo[4,3-d]pyrimidine] | < 30 | < 100 | < 100 | 250 to 10000
COc1ncnc(C2CC2)c1-c1ncc2c(n1)c(Cc1ccc(-c3nc(C(F)(F)F)cn3C)cc1)nn2CC(F)(F)F [Compound 190, 5-(4-cyclopropyl-6-methoxy-pyrimidin-5-yl)-3-[[4-[1-methyl-4-(trifluoromethyl)imidazol-2-yl]phenyl]methyl]-1-(2,2,2-trifluoroethyl)pyrazolo[4,3-d]pyrimidine] | 30 to 100 | < 100 | < 100 | ≥ 10000
COc1ncnc(C2CC2)c1-c1nc(C)c2[nH]cc(Cc3ccc(-c4nc(C(F)(F)F)cn4C)cc3)c2n1 [Compound 148, 2-(4-cyclopropyl-6-methoxy-pyrimidin-5-yl)-4-methyl-7-[[4-[1-methyl-4-(trifluoromethyl)imidazol-2-yl]phenyl]methyl]-5H-pyrrolo[3,2-d]pyrimidine] | < 30 | < 100 | < 100 | ≥ 10000
COc1ncnc(C2CC2)c1-c1ncc2[nH]c(CN)c(Cc3ccc(-c4nc(C(F)(F)F)cn4C)cc3)c2n1 [Compound 119] | 100 to 10000 | 100 to 250 | 250 to 10000 | 250 to 10000
COc1nc(C)nc(C2CC2)c1-c1ncc2[nH]nc(Cc3ccc(-c4nc(C(F)(F)F)cn4C)cc3)c2n1 [Compound 184, 5-(4-cyclopropyl-6-methoxy-2-methylpyrimidin-5-yl)-3-(4-(1-methyl-4-(trifluoromethyl)-1H-imidazol-2-yl)benzyl)-1H-pyrazolo[4,3-d]pyrimidine] | 30 to 100 | < 100 | < 100 | 250 to 10000
COc1ncnc(C2CC2)c1-c1ncc2[nH]cc(Oc3ccc(-c4nc(C(F)(F)F)cn4C)cc3)c2n1 [Compound 69, 2-(4-cyclopropyl-6-methoxy-pyrimidin-5-yl)-7-[4-[1-methyl-4-(trifluoromethyl)imidazol-2-yl]phenoxy]-5H-pyrrolo[3,2-d]pyrimidine] | 100 to 10000 | 250 to 10000 | 250 to 10000 | ≥ 10000
CNCc1[nH]c2cnc(-c3cccnc3C3CC3)nc2c1Cc1ccc(-c2nc(C(F)(F)F)cn2C)cc1 [Compound 178, 1-[2-(2-cyclopropyl-3-pyridyl)-7-[[4-[1-methyl-4-(trifluoromethyl)imidazol-2-yl]phenyl]methyl]-5H-pyrrolo[3,2-d]pyrimidin-6-yl]-N-methyl-methanamine] | 30 to 100 | < 100 | < 100 | 250 to 10000
CC(C)Oc1ncnc(C2CC2)c1-c1ncc2[nH]nc(Cc3ccc(-c4nc(C(F)(F)F)cn4C)cc3)c2n1 [Compound 102] | < 30 | 100 to 250 | 100 to 250 | ≥ 10000
